Measured values from ChEMBL document CHEMBL4507287, “Data for DCP probe MRL-650” (2021).

Experiments:
[1] = target: Serine/threonine-protein kinase SIK3 (Homo sapiens) (UniProt Q9Y2K2); conditions: Compound concentration 1000.0 nM
[2] = target: Interleukin-1 receptor-associated kinase 4 (Homo sapiens) (UniProt Q9NWZ3); conditions: Compound concentration 1000.0 nM
[3] = target: Atypical kinase COQ8A, mitochondrial (Homo sapiens) (UniProt Q8NI60); conditions: Compound concentration 1000.0 nM
[4] = target: Serine/threonine-protein kinase TNNI3K (Homo sapiens) (UniProt Q59H18); conditions: Compound concentration 1000.0 nM
[5] = target: Mitogen-activated protein kinase 10 (Homo sapiens) (UniProt P53779); conditions: Compound concentration 1000.0 nM
Mitogen-activated protein kinase 10 (Homo sapiens), sequence (P53779 whole entry): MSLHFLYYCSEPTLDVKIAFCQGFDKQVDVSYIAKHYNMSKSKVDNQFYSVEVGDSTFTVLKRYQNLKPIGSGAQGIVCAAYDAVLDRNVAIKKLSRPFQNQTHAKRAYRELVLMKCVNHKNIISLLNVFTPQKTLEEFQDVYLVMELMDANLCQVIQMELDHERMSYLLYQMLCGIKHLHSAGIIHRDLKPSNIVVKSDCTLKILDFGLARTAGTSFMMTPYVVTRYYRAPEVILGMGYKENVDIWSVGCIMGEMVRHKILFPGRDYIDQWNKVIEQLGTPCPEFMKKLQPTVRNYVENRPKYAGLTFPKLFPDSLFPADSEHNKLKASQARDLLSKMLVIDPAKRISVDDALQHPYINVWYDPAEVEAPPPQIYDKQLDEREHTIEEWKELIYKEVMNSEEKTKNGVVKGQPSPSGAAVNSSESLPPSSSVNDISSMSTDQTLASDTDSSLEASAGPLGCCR

[6] = target: Myosin-IIIa (Homo sapiens) (UniProt Q8NEV4); conditions: Compound concentration 1000.0 nM
[7] = target: Cyclin-dependent kinase 18 (Homo sapiens) (UniProt Q07002); conditions: Compound concentration 1000.0 nM
[8] = test system: Hepatocyte growth factor receptor (Homo sapiens), P08581 [Y1235D]; conditions: Compound concentration 1000.0 nM
[9] = target: Serine/threonine-protein kinase ULK3 (Homo sapiens) (UniProt Q6PHR2); conditions: Compound concentration 1000.0 nM
[10] = target: Activin receptor type-2A (Homo sapiens) (UniProt P27037); conditions: Compound concentration 1000.0 nM
[11] = target: MAP kinase-activated protein kinase 5 (Homo sapiens) (UniProt Q8IW41); conditions: Compound concentration 1000.0 nM
MAP kinase-activated protein kinase 5 (Homo sapiens), sequence (Q8IW41 whole entry): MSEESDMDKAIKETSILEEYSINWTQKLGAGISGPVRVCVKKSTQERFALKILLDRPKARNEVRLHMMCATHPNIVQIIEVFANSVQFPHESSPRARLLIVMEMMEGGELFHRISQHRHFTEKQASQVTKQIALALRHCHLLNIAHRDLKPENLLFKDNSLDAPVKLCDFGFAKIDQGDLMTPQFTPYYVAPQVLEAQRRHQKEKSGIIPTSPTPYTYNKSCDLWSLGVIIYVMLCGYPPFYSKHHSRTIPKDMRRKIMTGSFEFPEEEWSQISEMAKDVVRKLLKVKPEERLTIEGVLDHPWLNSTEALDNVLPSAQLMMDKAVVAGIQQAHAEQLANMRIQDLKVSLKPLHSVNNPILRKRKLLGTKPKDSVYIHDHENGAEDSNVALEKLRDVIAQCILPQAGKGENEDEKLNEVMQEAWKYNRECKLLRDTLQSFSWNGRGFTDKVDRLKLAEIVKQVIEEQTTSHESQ

[12] = target: Dual specificity protein kinase TTK (Homo sapiens) (UniProt P33981); conditions: Compound concentration 1000.0 nM
[13] = target: Serine/threonine-protein kinase Nek3 (Homo sapiens) (UniProt P51956); conditions: Compound concentration 1000.0 nM
[14] = target: Serine/threonine-protein kinase MARK2 (Homo sapiens) (UniProt Q7KZI7); conditions: Compound concentration 1000.0 nM
[15] = target: Serine/threonine-protein kinase 10 (Homo sapiens) (UniProt O94804); conditions: Compound concentration 1000.0 nM
[16] = target: Ephrin type-B receptor 4 (Homo sapiens) (UniProt P54760); conditions: Compound concentration 1000.0 nM
[17] = target: Mitogen-activated protein kinase kinase kinase 11 (Homo sapiens) (UniProt Q16584); conditions: Compound concentration 1000.0 nM
[18] = target: Microtubule-associated serine/threonine-protein kinase 1 (Homo sapiens) (UniProt Q9Y2H9); conditions: Compound concentration 1000.0 nM
[19] = target: D(2) dopamine receptor (Homo sapiens) (UniProt P14416); conditions: Compound concentration 10.0 uM
D(2) dopamine receptor (Homo sapiens), sequence (P14416 whole entry): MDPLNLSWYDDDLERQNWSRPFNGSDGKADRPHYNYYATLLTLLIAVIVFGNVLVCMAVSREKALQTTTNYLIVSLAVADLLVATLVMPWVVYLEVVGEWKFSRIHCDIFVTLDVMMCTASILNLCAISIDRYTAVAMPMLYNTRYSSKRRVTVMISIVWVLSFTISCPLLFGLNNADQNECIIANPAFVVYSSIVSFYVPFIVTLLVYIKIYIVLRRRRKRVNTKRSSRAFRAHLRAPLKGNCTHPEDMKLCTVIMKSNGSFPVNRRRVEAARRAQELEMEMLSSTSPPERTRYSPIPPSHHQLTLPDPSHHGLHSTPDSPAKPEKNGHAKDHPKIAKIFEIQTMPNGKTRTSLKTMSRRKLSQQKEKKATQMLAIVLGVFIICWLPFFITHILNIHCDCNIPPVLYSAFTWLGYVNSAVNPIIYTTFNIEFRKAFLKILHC

[20] = target: Serine/threonine-protein kinase NIM1 (Homo sapiens) (UniProt Q8IY84); conditions: Compound concentration 1000.0 nM
[21] = target: Mitogen-activated protein kinase kinase kinase 4 (Homo sapiens) (UniProt Q9Y6R4); conditions: Compound concentration 1000.0 nM
[22] = target: Protein-tyrosine kinase 2-beta (Homo sapiens) (UniProt Q14289); conditions: Compound concentration 1000.0 nM
Protein-tyrosine kinase 2-beta (Homo sapiens), sequence (Q14289 whole entry, looked up): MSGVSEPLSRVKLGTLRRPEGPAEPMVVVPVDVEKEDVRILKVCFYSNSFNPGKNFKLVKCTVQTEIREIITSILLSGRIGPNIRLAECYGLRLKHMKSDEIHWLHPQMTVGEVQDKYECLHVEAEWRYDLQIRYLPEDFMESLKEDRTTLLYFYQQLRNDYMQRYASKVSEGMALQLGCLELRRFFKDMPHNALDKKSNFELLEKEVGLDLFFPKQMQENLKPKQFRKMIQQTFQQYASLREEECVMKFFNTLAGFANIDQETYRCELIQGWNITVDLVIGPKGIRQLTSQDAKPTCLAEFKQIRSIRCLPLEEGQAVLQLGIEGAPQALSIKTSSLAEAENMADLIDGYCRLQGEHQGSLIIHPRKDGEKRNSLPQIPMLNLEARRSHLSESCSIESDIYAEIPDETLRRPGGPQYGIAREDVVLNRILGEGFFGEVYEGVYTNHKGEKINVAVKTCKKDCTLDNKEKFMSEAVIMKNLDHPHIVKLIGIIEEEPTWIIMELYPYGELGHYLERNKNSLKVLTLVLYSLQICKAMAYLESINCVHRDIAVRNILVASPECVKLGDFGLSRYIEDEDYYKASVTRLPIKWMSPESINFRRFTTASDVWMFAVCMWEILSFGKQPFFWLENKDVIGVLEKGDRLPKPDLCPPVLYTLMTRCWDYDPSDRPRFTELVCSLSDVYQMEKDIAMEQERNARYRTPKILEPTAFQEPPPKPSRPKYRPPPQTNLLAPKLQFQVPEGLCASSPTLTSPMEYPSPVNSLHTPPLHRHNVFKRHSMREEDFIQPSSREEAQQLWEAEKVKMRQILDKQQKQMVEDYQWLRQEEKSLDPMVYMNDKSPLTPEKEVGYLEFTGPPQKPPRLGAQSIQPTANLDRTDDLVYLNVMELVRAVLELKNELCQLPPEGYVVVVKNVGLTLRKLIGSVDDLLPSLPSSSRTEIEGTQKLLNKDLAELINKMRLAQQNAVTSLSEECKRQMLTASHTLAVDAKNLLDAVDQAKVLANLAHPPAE

[23] = target: Mitogen-activated protein kinase 9 (Homo sapiens) (UniProt P45984); conditions: Compound concentration 1000.0 nM
[24] = target: Ribosomal protein S6 kinase beta-1 (Homo sapiens) (UniProt P23443); conditions: Compound concentration 1000.0 nM
[25] = target: Tyrosine-protein kinase Fer (Homo sapiens) (UniProt P16591); conditions: Compound concentration 1000.0 nM
[26] = target: Tyrosine-protein kinase Fes/Fps (Homo sapiens) (UniProt P07332); conditions: Compound concentration 1000.0 nM
[27] = target: Mitogen-activated protein kinase kinase kinase 3 (Homo sapiens) (UniProt Q99759); conditions: Compound concentration 1000.0 nM
[28] = target: Receptor-interacting serine/threonine-protein kinase 2 (Homo sapiens) (UniProt O43353); conditions: Compound concentration 1000.0 nM
[29] = test system: Receptor-type tyrosine-protein kinase FLT3 (Homo sapiens), P36888 [D835Y]; conditions: Compound concentration 1000.0 nM
[30] = target: Rho-associated protein kinase 1 (Homo sapiens) (UniProt Q13464); conditions: Compound concentration 1000.0 nM
[31] = target: Fibroblast growth factor receptor 1 (Homo sapiens) (UniProt P11362); conditions: Compound concentration 1000.0 nM
[32] = target: D(4) dopamine receptor (Homo sapiens) (UniProt P21917); conditions: Compound concentration 10.0 uM
[33] = target: Tyrosine-protein kinase receptor Tie-1 (Homo sapiens) (UniProt P35590); conditions: Compound concentration 1000.0 nM
[34] = target: Serine/threonine-protein kinase Nek11 (Homo sapiens) (UniProt Q8NG66); conditions: Compound concentration 1000.0 nM
[35] = target: Cyclin-dependent kinase-like 1 (Homo sapiens) (UniProt Q00532); conditions: Compound concentration 1000.0 nM
Cyclin-dependent kinase-like 1 (Homo sapiens), sequence (Q00532 whole entry): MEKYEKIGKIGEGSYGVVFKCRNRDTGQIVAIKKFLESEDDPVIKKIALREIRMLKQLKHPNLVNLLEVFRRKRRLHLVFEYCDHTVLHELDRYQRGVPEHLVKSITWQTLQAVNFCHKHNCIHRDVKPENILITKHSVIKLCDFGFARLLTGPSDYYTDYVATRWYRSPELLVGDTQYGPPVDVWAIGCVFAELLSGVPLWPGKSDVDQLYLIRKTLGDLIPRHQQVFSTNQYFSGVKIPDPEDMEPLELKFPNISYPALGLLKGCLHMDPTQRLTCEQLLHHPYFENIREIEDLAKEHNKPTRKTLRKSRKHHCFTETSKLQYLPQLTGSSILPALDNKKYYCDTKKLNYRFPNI

[36] = target: High affinity nerve growth factor receptor (Homo sapiens) (UniProt P04629); conditions: Compound concentration 1000.0 nM
[37] = target: Mitogen-activated protein kinase kinase kinase 9 (Homo sapiens) (UniProt P80192); conditions: Compound concentration 1000.0 nM
[38] = target: Serine/threonine-protein kinase Chk1 (Homo sapiens) (UniProt O14757); conditions: Compound concentration 1000.0 nM
[39] = target: cAMP-dependent protein kinase catalytic subunit PRKX (Homo sapiens) (UniProt P51817); conditions: Compound concentration 1000.0 nM
[40] = target: G protein-coupled receptor kinase 4 (Homo sapiens) (UniProt P32298); conditions: Compound concentration 1000.0 nM
[41] = target: Ribosomal protein S6 kinase alpha-2 (Homo sapiens) (UniProt Q15349); conditions: Compound concentration 1000.0 nM
[42] = target: Muscle, skeletal receptor tyrosine-protein kinase (Homo sapiens) (UniProt O15146); conditions: Compound concentration 1000.0 nM
Muscle, skeletal receptor tyrosine-protein kinase (Homo sapiens), sequence (O15146 whole entry, canonical isoform): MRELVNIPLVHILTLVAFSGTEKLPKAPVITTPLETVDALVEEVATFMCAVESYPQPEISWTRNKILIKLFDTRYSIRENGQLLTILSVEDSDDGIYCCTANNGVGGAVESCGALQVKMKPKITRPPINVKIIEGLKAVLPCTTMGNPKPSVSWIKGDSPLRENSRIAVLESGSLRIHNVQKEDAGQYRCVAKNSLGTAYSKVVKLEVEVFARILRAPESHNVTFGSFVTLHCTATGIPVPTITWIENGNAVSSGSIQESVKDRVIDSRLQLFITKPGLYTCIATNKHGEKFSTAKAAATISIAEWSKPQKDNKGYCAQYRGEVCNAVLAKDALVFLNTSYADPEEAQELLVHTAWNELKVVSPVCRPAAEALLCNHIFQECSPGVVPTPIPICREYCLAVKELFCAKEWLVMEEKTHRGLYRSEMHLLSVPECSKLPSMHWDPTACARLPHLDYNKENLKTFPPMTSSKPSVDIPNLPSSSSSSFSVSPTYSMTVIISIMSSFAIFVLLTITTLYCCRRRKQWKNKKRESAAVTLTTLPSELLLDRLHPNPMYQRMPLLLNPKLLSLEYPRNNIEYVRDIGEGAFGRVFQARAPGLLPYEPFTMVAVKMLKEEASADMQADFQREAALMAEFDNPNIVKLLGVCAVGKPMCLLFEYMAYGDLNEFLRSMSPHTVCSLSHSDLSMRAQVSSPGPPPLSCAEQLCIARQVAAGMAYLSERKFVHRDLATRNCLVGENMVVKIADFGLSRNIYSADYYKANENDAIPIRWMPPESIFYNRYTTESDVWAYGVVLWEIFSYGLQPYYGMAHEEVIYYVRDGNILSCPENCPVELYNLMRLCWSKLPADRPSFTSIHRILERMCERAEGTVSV

[43] = target: Phosphatidylinositol 4,5-bisphosphate 3-kinase catalytic subunit delta isoform (Homo sapiens) (UniProt O00329); conditions: Compound concentration 1000.0 nM
Phosphatidylinositol 4,5-bisphosphate 3-kinase catalytic subunit delta isoform (Homo sapiens), sequence (O00329 whole entry, canonical isoform): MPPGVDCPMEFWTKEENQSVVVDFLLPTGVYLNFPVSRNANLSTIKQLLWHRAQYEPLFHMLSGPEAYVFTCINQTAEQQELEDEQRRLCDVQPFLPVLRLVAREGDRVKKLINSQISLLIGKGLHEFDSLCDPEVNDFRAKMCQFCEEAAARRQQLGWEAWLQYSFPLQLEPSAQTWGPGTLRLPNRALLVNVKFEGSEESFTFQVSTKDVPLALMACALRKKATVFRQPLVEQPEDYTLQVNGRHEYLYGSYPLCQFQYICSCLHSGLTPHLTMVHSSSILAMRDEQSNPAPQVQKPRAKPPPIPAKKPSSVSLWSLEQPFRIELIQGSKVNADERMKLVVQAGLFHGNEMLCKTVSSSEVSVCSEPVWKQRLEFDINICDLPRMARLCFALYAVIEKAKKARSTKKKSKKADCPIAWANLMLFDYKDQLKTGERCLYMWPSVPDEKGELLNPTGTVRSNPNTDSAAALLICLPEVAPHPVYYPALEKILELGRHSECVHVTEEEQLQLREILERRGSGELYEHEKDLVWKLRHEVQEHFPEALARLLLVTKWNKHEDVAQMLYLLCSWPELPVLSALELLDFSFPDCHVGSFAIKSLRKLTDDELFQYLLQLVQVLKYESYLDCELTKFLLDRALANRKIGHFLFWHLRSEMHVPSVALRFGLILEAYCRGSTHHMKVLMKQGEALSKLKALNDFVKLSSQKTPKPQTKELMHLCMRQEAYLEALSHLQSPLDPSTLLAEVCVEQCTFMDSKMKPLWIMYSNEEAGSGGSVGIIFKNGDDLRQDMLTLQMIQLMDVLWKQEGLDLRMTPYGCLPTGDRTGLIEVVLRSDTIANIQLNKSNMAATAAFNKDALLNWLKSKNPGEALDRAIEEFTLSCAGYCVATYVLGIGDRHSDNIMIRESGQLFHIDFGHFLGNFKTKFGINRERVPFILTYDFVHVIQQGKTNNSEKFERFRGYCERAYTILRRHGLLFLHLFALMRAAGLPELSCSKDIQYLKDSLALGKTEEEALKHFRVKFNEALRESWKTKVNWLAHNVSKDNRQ

[44] = target: Mast/stem cell growth factor receptor Kit (Homo sapiens) (UniProt P10721); conditions: Compound concentration 1000.0 nM
[45] = target: 5-hydroxytryptamine receptor 1B (Homo sapiens) (UniProt P28222); conditions: Compound concentration 10.0 uM
5-hydroxytryptamine receptor 1B (Homo sapiens), sequence (P28222 whole entry): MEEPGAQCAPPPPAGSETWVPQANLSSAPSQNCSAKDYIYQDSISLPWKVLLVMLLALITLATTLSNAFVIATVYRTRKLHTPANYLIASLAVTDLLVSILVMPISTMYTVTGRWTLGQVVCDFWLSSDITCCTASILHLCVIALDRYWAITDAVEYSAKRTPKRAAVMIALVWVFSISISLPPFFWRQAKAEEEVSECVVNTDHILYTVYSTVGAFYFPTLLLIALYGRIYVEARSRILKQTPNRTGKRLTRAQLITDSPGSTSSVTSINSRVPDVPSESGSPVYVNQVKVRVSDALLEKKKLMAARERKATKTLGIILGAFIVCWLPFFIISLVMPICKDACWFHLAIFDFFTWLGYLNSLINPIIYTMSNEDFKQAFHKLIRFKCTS

CC(=O)Nc1c(C(C)=O)c(=O)n(C)c2nc(-c3ccc(Cl)cc3Cl)c(-c3ccc(Cl)cc3)cc12 [NAPHTHYRIDINONE]
inactive: residual activity [1] 100% | residual activity [2] 100% | residual activity [3] 100% | residual activity [4] 100% | residual activity [5] 100% | residual activity [6] 100% | residual activity [7] 100% | residual activity [8] 100% | residual activity [9] 75% | residual activity [10] 100% | residual activity [11] 100% | residual activity [12] 100% | residual activity [13] 100% | residual activity [14] 100% | residual activity [15] 100% | residual activity [16] 100% | residual activity [17] 100% | residual activity [18] 100% | inhibition [19] 5.73% | residual activity [20] 100% | residual activity [21] 89% | residual activity [22] 100% | residual activity [23] 100% | residual activity [24] 95% | residual activity [25] 88% | residual activity [26] 100% | residual activity [27] 100% | residual activity [28] 100% | residual activity [29] 100% | residual activity [30] 100% | residual activity [31] 100% | inhibition [32] 22.7% | residual activity [33] 100% | residual activity [34] 100% | residual activity [35] 100% | residual activity [36] 100% | residual activity [37] 100% | residual activity [38] 100% | residual activity [39] 100% | residual activity [40] 100% | residual activity [41] 100% | residual activity [42] 100% | residual activity [43] 100% | residual activity [44] 100% | inhibition [45] 43.6%

CC(=O)c1c(NS(C)(=O)=O)c2cc(-c3ccc(Cl)cc3)c(-c3ccc(Cl)cc3Cl)nc2n(C)c1=O [MRL-CB1-NC]
inactive: residual activity [1] 100% | residual activity [2] 95% | residual activity [3] 100% | residual activity [4] 100% | residual activity [5] 78% | residual activity [6] 88% | residual activity [7] 100% | residual activity [8] 95% | residual activity [9] 80% | residual activity [10] 100% | residual activity [11] 89% | residual activity [12] 100% | residual activity [13] 67% | residual activity [14] 100% | residual activity [15] 100% | residual activity [16] 92% | residual activity [17] 100% | residual activity [18] 100% | inhibition [19] 2.43% | residual activity [20] 81% | residual activity [21] 95% | residual activity [22] 100% | residual activity [23] 67% | residual activity [24] 95% | residual activity [25] 100% | residual activity [26] 87% | residual activity [27] 100% | residual activity [28] 96% | residual activity [29] 95% | residual activity [30] 85% | residual activity [31] 97% | inhibition [32] 17.1% | residual activity [33] 100% | residual activity [34] 79% | residual activity [35] 91% | residual activity [36] 64% | residual activity [37] 100% | residual activity [38] 100% | residual activity [39] 97% | residual activity [40] 94% | residual activity [41] 100% | residual activity [42] 99% | residual activity [43] 100% | residual activity [44] 100% | inhibition [45] -2.36%
